Data: patent US8653071B2, “α4β2 neuronal nicotinic acetylcholine receptor ligands” (Suven Life Sciences Limited, priority 2009, dated 2014)

What was measured:
[1] = biological target: Nicotinic Acetylcholine α4β2 Receptor (UniProt P09483+P12390); test: Binding assay for human or rat nicotinic acetylcholine α4β2 receptor ([3H]Cytisine displacement); conditions: [3H]Cytisine 2.5 nM; rat brain frontal cortex or recombinant human receptor in CHO cells (not specified which); read-out: Ki
Experimental: Binding Assay for Human or Rat Nicotinic Acetylcholine α4β2 Receptor
• Receptor source: Rat brain frontal cortex or recombinant human cDNA expressed in CHO cells • Radioligand: [^3H]Cytisine 15-40 Ci/mmole • Final ligand concentration—[2.5 nM] • Non-specific determinant: Epibatidine—[0.1 μM] • Reference compound: Epibatidine • Positive control: Epibatidine Incubation Conditions:
Increasing concentrations of test compounds or standard were incubated with membrane receptors and radioligand in 120 mM NaCl, 2.5 mM KCl, 1 mM CaCl2, 1 mM MgCl2 and 50 mM TRIS-HCl (pH 7.4) for 60 minutes at room temperature. The reaction was terminated by rapid vacuum filtration onto the glass fiber filters. Radioactivity trapped onto the filters was determined and compared to the control values in order to ascertain any interactions of the test compound(s) with either cloned human or rat receptor binding site.
Literature Reference: Bunnelle W. H., Daanen J. F., Ryther K. B., Schrimpf M. R., Dart M. J., Gelain A., Meyer M. D., Frost J. M., Anderson D. J., Buckley M., Curzon P., Cao Y-J., Puttfarcken P., Searle X., Ji J., Putman C. B., Surowy C., Toma L. and Barlocco D. Structure-Activity Studies and Analgesic Efficacy of N-(3-Pyridinyl)-Bridged Bicyclic Diamines, Exceptionally Potent Agonists at Nicotinic Acetylcholine Receptors. J. Med. Chem. 2007, 50, […].

[2] = Rodent pharmacokinetic study; format: in vivo; conditions: Wistar, in vivo, Wister rat/Male; for AUC(0-t) / Cmax / Tmax / half-life: 5 mg/kg
Experimental: Rodent Pharmacokinetic Study
Three to five animals were housed in each cage. Animals were kept fasted over night and maintained on a 12 hours light/dark cycle. Three rats were dosed NCE orally (15 or 5 mg/kg) and intravenously (5 mg/kg) on day 0 and day 2
At each time point blood was collected by jugular vein. Plasma was stored frozen at −20° C. until analysis. The concentrations of the NCE compound in plasma were determined using LC-MS/MS method. Schedule time points: Pre dose 0.25, 0.5, 1, 1.5, 2, 3, 4, 6, 8, 10, 12 and 24 hours after dosing (n=3).
Pharmacokinetic parameters Cmax, Tmax, AUCt, T1/2 and Bioavailability were calculated by non-compartmental model using software WinNonlin version 5.0.1.

in vivo = conditions: male, Wistar, rat, po, 5 mg/kg
Experimental: Rodent Brain Penetration Study
Three animals were housed in each cage. Animals were given water and food ad libitum throughout the experiment, and maintained on a 12 hours light/dark cycle.
NCE compound was dissolved in water and administered orally. At Tmax (0.5, 1.0 and 2.0) animals were sacrificed to collect the plasma and brain tissue and were homogenized. Plasma and Brain was stored frozen at −20° C. until analysis. The concentrations of the NCE compound in plasma and Brain were determined using LC-MS/MS method.
The NCE compounds were quantified in plasma and brain homogenate by validated LC-MS/MS method using solid phase extraction technique. NCE compounds were quantified in the calibration range of 1-500 ng/mL in plasma and brain homogenate. Study samples were analyzed using calibration samples in the batch and quality control samples spread across the batch. Extents of brain-blood ratio were calculated (Cb/Cp).

Male Wister rats [3] = test: Reversal of formalin induced nociception; format: in vivo; conditions: p.o.; rat
Experimental: Reversal of Formalin Induced Nociception
The anti-nociceptive properties of compounds of this invention were evaluated using a model of pain: the Formalin Induced Nociception model. Male Wister rats (230-280 grams) obtained from N. I. N. (National Institute of Nutrition, Hyderabad, India) was used as experimental animals.
Rats were habituated for 20 minutes in the arena before the experiment was started. Duration of licks, bites and flinches were noted from 0-10 minutes and 20-35 minutes after administration of formalin, subplantar into the right hind paw at concentrations of 5% v/v. 50 μL of water for injection was injected into the right hind paw of the rats of the sham group. Compounds of this invention were administered orally prior to formalin administration.

Male Wister rats [4] = test: Object recognition task model; format: in vivo, rat; conditions: 0.1 mg/kg, p.o.
Experimental: Object Recognition Task Model
The cognition-enhancing properties of compounds of this invention were estimated using a model of animal cognition: the object recognition task model.
Male Wister rats (230-280 grams) obtained from N. I. N. (National Institute of Nutrition, Hyderabad, India) was used as experimental animals. Four animals were housed in each cage. […] Also the rats were habituated to individual arenas for 1 hour in the absence of any objects.
One group of 12 rats received vehicle (1 mL/Kg) orally and another set of animals received compound of the formula (I) either orally or i.p., before one hour of the familiar (T1) and choice trial (T2).
The experiment was carried out in a 50×50×50 cm open field made up of acrylic. In the familiarization phase, (T1), the rats were placed individually in the open field for 3 minutes, in which two identical objects (plastic bottles, 12.5 cm height×5.5 cm diameter) covered in yellow masking tape alone (a1 and a2) were positioned in two adjacent corners, 10 cm. from the walls. After 24 hours of the (T1) trial for long-term memory test, the same rats were placed in the same arena as they were placed in T1 trial. Choice phase (T2) rats were allowed to explore the open field for 3 minutes in presence of one familiar object (a3) and one novel object (b) (Amber color glass bottle, 12 cm high and 5 cm in diameter). Familiar objects presented similar textures, colors and sizes. During the T1 and T2 trial, explorations of each object (defined as sniffing, licking, chewing or having moving vibrissae whilst directing the nose towards the object at a distance of less than 1 cm) were recorded separately by stopwatch. Sitting on an object was not regarded as exploratory activity, however, it was rarely observed.
T1 is the total time spent exploring the familiar objects (a1+a2).
T2 is the total time spent exploring the familiar object and novel object (a3+b).
The object recognition test was performed as described by Ennaceur, A., Delacour, J., 1988, A new one-trial test for neurobiological studies of memory in rats—Behavioural data, Behav. Brain Res., 31, 47-59.

Male Sprague Dawley rats = test: DRL-72s model of animal depression; format: in vivo; conditions: p.o.; rat
Experimental: The antidepressant properties of compounds of this invention were evaluated using a model of animal depression: the DRL-72s model. Male Sprague Dawley rats were used as experimental animals. Rats are trained to lever press for a 4″ access to 0.025 ml of water for each correct response during daily 60 minute sessions. All testing takes place on weekdays only. At the beginning of each session, the house light is illuminated and remains lit until the session ends. No other stimuli are presented during testing. After successful lever press training, rats are then required to respond under a DRL-24 second schedule, where only lever presses that are separated by 24 seconds are reinforced. Upon stable responding on a DRL-24 second schedule (5-10 sessions), rats are trained on a DRL-72 second schedule until responding stabilizes at approximately 15% efficiency (approx 25-35 sessions). Specifically, rats receive a reinforcer for each response that is emitted at least 72 seconds after the previous response (IRT). […] Efficiency is recorded as number of reinforced responses÷total number of responses. After stable baseline responding is achieved, defined as responding for 4 consecutive sessions with no more than 10% variability, animals begin drug testing. Animals receive drug no more than 1× per week.

NCC1CC2CC2N1c1cncc(Cl)c1.O=C(O)/C=C/C(=O)O (stereo not shown) [Example 13, [2-(5-Chloropyridin-3-yl)-2-aza-bicyclo[3.1.0]hex-3-yl]methylamine fumarate]
Ki [1]: 3.5 nM | bioavailability ([2]; 5 mg/kg Per-Oral vs 5 mg/kg Intravenous): 89 ± 18% | AUC(0-t) ([2]; Intravenous): 1760 ± 228 ng·h/mL | Cmax ([2]; Intravenous): 836 ± 239 ng/mL | Tmax ([2]; Intravenous): 4.8 min | half-life ([2]; Intravenous): 85.8 ± 6.6 min | AUC(0-t) ([2]; Per-Oral): 1540 ± 165 ng·h/mL | Cmax ([2]; Per-Oral): 753 ± 277 ng/mL | Tmax ([2]; Per-Oral): 22.8 ± 8.4 min | half-life ([2]; Per-Oral): 105 ± 24 min | Kp (in vivo): 10.8 ± 1.29 | Dose (reversal of formalin induced nociception) (Male Wister rats [3]): ≧30 mg/kg, p.o. | Inference (Male Wister rats [4]): Active | Exploration time mean ± S.E.M, Familiar object (Male Wister rats [4]; choice trial): 7.32 ± 1.04 s | Exploration time mean ± S.E.M, Novel object (Male Wister rats [4]; choice trial): 22.77 ± 2.12 s | Dose (DRL-72s) (Male Sprague Dawley rats): ≧10 mg/kg, p.o.
